Source: patent US11111251B2, “Positive allosteric modulators of the muscarinic acetylcholine receptor M1” (Vanderbilt University, priority 2016, dated 2021)

Target: T1, human mAChR M1 (Homo sapiens, UniProt P11229)
T1 sequence (P11229 1-460): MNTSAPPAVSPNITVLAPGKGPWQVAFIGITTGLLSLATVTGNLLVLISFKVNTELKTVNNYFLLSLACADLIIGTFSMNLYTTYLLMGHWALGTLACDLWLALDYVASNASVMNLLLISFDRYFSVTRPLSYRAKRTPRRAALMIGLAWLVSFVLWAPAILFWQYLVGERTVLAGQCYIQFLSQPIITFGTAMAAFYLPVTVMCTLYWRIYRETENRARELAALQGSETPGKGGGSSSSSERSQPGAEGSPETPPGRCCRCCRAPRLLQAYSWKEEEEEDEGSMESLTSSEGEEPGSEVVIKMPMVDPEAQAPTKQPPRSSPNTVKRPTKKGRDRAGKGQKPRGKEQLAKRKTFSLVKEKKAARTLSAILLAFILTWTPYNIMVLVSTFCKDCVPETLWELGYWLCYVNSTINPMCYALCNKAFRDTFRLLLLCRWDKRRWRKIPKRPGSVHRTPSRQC
Assay: mAChR M1 cell-based functional assay: calcium mobilization, positive allosteric modulator mode (increase in EC20 acetylcholine response)
Conditions: Table 2, human M1; for EC50: read-out: Human M1 EC50; for Emax: read-out: Human M1 Emax (%)
Outline: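 Calcium-flux assay in CHO-K1 cells stably expressing human M1, loaded with Fluo-4 AM (50 min, 37 °C) and read at 1 Hz. Compound (11-point, 1:3 series) was added at 4 s, EC20 acetylcholine at 144 s and EC80 at 230 s. PAM activity is the concentration-dependent rise in the EC20 response, fitted with a four-parameter logistic.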

O=C(NC1CC(F)C1)c1cc(Cc2ccc(-c3cscn3)cc2)c2sccc2n1 (centres unmarked) [Compound 205, N-(3-fluorocyclobutyl)-7-[(4-thiazol-4-ylphenyl)methyl]thieno[3,2-b]pyridine-5-carboxamide]
EC50: 1720 nM
Emax: 78%

O=C(N[C@H]1CCC[C@@H]1O)c1cc(Cc2ccc(-c3cscn3)cc2)c2sccc2n1 [Compound 206, N-[(1S,2S)-2-hydroxycyclopentyl]-7-[(4-thiazol-4-ylphenyl)methyl]thieno[3,2-b]pyridine-5-carboxamide]
EC50: 38.8 nM
Emax: 87%

O=C(N[C@@H]1CCOC1)c1cc(Cc2ccc(-c3cscn3)cc2)c2sccc2n1 [Compound 207, N-[(3R)-tetrahydrofuran-3-yl]-7-[(4-thiazol-4-ylphenyl)methyl]thieno[3,2-b]pyridine-5-carboxamide]
EC50: 2970 nM
Emax: 77%

O=C(N[C@H]1CCOC1)c1cc(Cc2ccc(-c3cscn3)cc2)c2sccc2n1 [Compound 208, N-[(3S)-tetrahydrofuran-3-yl]-7-[(4-thiazol-4-ylphenyl)methyl]thieno[3,2-b]pyridine-5-carboxamide]
EC50: 1880 nM
Emax: 80.3%

O=C(NC1CCCCC1)c1cc(Cc2ccc(-c3cscn3)cc2)c2sccc2n1 [Compound 209, N-cyclohexyl-7-[(4-thiazol-4-ylpheny)methyl]thieno[3,2-b]pyridine-5-carboxamide]
EC50: 3890 nM
Emax: 69.7%

CN1CCCC(NC(=O)c2cc(Cc3ccc(-c4cscn4)cc3)c3sccc3n2)C1 (centres unmarked) [Compound 210, N-(1-methyl-3-piperidyl)-7-[(4-thiazol-4-ylphenyl)methyl]thieno[3,2-b]pyridine-5-carboxamide]
EC50: 2340 nM
Emax: 82.2%

CN1CCC(NC(=O)c2cc(Cc3ccc(-c4cscn4)cc3)c3sccc3n2)CC1 [Compound 211, N-(1-methyl-4-piperidyl)-7-[(4-thiazol-4-ylphenyl)methyl]thieno[3,2-b]pyridine-5-carboxamide]
EC50: 1780 nM
Emax: 82.6%

O=C(N[C@@H]1CCCOC1)c1cc(Cc2ccc(-c3cscn3)cc2)c2sccc2n1 [Compound 212, N-[(3R)-tetrahydropyran-3-yl]-7-[(4-thiazol-4-ylphenyl)methyl]thieno[3,2-b]pyridine-5-carboxamide]
EC50: 858 nM
Emax: 73.3%

O=C(N[C@H]1CCCOC1)c1cc(Cc2ccc(-c3cscn3)cc2)c2sccc2n1 [Compound 213, N-([3S)-tetrahydropyran-3-yl]-7-[(4-thiazol-4-ylphenyl)methyl]thieno[3.2-b]pyridine-5-carboxamide]
EC50: 1120 nM
Emax: 61.2%

CN(C(=O)c1cc(Cc2ccc(-c3cscn3)cc2)c2sccc2n1)C1CCOCC1 [Compound 214, N-methyl-N-tetrahydropyran-4-yl-7-[(4-thiazol-4-ylphenyl)methyl]thieno[3,2-b]pyridine-5-carboxamide]
EC50: 5950 nM
Emax: 81.1%

O=C(N[C@H]1CCOC[C@@H]1O)c1cc(Cc2ccc(-c3cscn3)cc2)c2sccc2n1 [Compound 215, N-[(3R,4S)-3-hydroxytetrahydropyran-4-yl]-7-[(4-thiazol-4-ylphenyl)methyl]thieno[3,2-b]pyridine-5-carboxamide]
EC50: 10.1 nM
Emax: 72.7%

O=C(N[C@H]1COCC[C@@H]1O)c1cc(Cc2ccc(-c3cscn3)cc2)c2sccc2n1 [Compound 216]
EC50: 22 nM
Emax: 81.2%

O=C(N[C@H]1CCCC[C@@H]1O)c1cc(Cc2ccc(-c3cscn3)cc2)c2sccc2n1 [Compound 217, N-[(1S,2S)-2-hydroxycyclohexyl]-7-[(4-thiazol-4-ylphenyl)methyl]thieno[3,2-b]pyridine-5-carboxamide]
EC50: 45.4 nM
Emax: 74.8%

CO[C@H]1CCCC[C@@H]1NC(=O)c1cc(Cc2ccc(-c3cscn3)cc2)c2sccc2n1 [Compound 218, N-[(1S,2S)-2-methoxycyclohexyl]-7-[(4-thiazol-4-ylphenyl)methyl]thieno[3,2-b]pyridine-5-carboxamide]
EC50: > 10000 nM
Emax: 52.2%

O=C(N[C@H]1CCCCC[C@@H]1O)c1cc(Cc2ccc(-c3cscn3)cc2)c2sccc2n1 [Compound 219, N-[(1S,2S)-2-hydroxycycloheptyl]-7-[(4-thiazol-4-ylphenyl)methyl]thieno[3,2-b]pyridine-5-carboxamide]
EC50: 144 nM
Emax: 73%

O=C(NC1CCN2CCCC12)c1cc(Cc2ccc(-c3cscn3)cc2)c2sccc2n1 (centres unmarked) [Compound 220, N-(hexahydro-1H-pyrrolizin-1-yl)-7-[(4-thiazol-4-ylphenyl)methyl]thieno[3,2-b]pyridine-5-carboxamide]
EC50: 1280 nM
Emax: 80.6%

O=C(NC1CCCNC1=O)c1cc(Cc2ccc(-c3cscn3)cc2)c2sccc2n1 (centres unmarked) [Compound 221, N-(2-oxo-3-piperidyl)-7-[(4-thiazol-4-ylphenyl)methyl]thieno[3,2-b]pyridine-5-carboxamide]
EC50: 595 nM
Emax: 86.9%

O=C(NC1CCCCNC1=O)c1cc(Cc2ccc(-c3cscn3)cc2)c2sccc2n1 (centres unmarked) [Compound 222, N-(2-oxoazepan-3-yl)-7-[(4-thiazol-4-ylphenyl)methyl]thieno[3,2-b]pyridine-5-carboxamide]
EC50: 317 nM
Emax: 80.3%

Cn1cc(-c2ccc(Cc3cc(C(=O)N[C@H]4CCC[C@@H]4O)nc4ccsc34)cn2)cn1 [Compound 223, N-[(1S,2S)-2-hydroxycyclopentyl]-7-[[6-(1-methylpyrazol-4-yl)-3-pyridyl]methyl]thieno[3,2-b]pyridine-5-carboxamide]
EC50: 29.4 nM
Emax: 79.9%

Cn1cc(-c2ccc(Cc3cc(C(=O)N[C@H]4CCCC[C@@H]4O)nc4ccsc34)cn2)cn1 [Compound 224, N-[(1S,2S)-2-hydroxycyclohexyl]-7-[[6-(1-methylpyrazol-4-yl)-3-pyridyl]methyl]thieno[3,2-b]pyridine-5-carboxamide]
EC50: 13.4 nM
Emax: 71.2%

Cn1cc(-c2ccc(Cc3cc(C(=O)N[C@H]4CCOC[C@@H]4O)nc4ccsc34)cn2)cn1 [Compound 225, N-[(3R,4S)-3-hydroxytetrahydropyran-4-yl]-7-[[6-(1-methylpyrazol-4-yl)-3-pyridyl]methyl]thieno[3,2-b]pyridine-5-carboxamide]
EC50: 7.31 nM
Emax: 63.6%

Cn1cc(-c2ccc(Cc3cc(C(=O)N[C@H]4CCCCC[C@@H]4O)nc4ccsc34)cn2)cn1 [Compound 226, N-[(1S,2S)-2-hydroxycycloheptyl]-7-[[6-(1-methylpyrazol-4-yl)-3-pyridyl]methyl]thieno[3,2-b]pyridine-5-carboxamide]
EC50: 9.36 nM
Emax: 66.2%

O=C(N[C@@H]1CC[C@H]1O)c1cc(Cc2ccc(-n3cccn3)cc2)c2sccc2n1 [Compound 227, N-[(1R,2R)-2-hydroxycyclobutyl]-7-[(4-pyrazol-1-ylphenyl)methyl]thieno[3,2-b]pyridine-5-carboxamide]
EC50: 125 nM
Emax: 79.8%

O=C(NC1CCOCC1)c1cc(Cc2ccc(-n3cccn3)cc2)c2sccc2n1 [Compound 228, 7-[(4-pyrazol-1-ylphenyl)methyl]-N-tetrahydropyran-4-yl-thieno[3,2-b]pyridine-5-carboxamide]
EC50: 160 nM
Emax: 81.8%

Cn1cc(-c2ccc(Cc3cc(C(=O)NC4CCOCC4)nc4ccsc34)cc2)nn1 [Compound 229, 7-[[4-(1-methyltriazol-4-yl)phenyl]methyl]-N-tetrahydropyran-4-yl-thieno[3,2-b]pyridine-5-carboxamide]
EC50: 27.1 nM
Emax: 78.6%

Cc1nc(-c2ccc(Cc3cc(C(=O)NC4CCOCC4)nc4ccsc34)cc2)co1 [Compound 230, 7-[[4-(2-methyloxazol-4-yl)phenyl]methyl]-N-tetrahydropyran-4-yl-thieno[3,2-b]pyridine-5-carboxamide]
EC50: 175 nM
Emax: 77.7%

O=C(NC1CC2(COC2)C1)c1cc(Cc2ccc(-c3cscn3)cc2)c2sccc2n1 [Compound 231, N-(2-oxaspiro[3.3]heptan-6-yl)-7-[(4-thiazol-4-ylphenyl)methyl]thieno[3,2-b]pyridine-5-carboxamide]
EC50: 68.7 nM
Emax: 88.5%

O=C(NC1CCOCC1)c1cc(Cc2ccc(-c3cscn3)cc2)c2sccc2n1 [Compound 232, N-tetrahydropyran-4-yl-7-[(4-thiazol-4-ylphenyl)methyl]thieno[3,2-b]pyridine-5-carboxamide]
EC50: 134 nM
Emax: 75.7%

Cc1ccc([C@H](F)c2cc(C(=O)N[C@H]3CCCC[C@@H]3O)nc3ccsc23)cn1 [Compound 233]
EC50: 161 nM
Emax: 67.8%

Cc1ccc([C@@H](F)c2cc(C(=O)N[C@H]3CCCC[C@@H]3O)nc3ccsc23)cn1 [Compound 234]
EC50: 1370 nM
Emax: 64.6%

Cc1ccc(Cc2cc(C(=O)NC3CCCCCC3(C)O)nc3ccsc23)cn1 (centres unmarked) [Compound 235, N-(2-hydroxy-2-methyl-cycloheptyl)-7-[(6-methyl-3-pyridyl)methyl]thieno[3,2-b]pyridine-5-carboxamide]
EC50: 1010 nM
Emax: 71.1%
